In ChEMBL document CHEMBL5465560, “Selectivity Literature for EUbOPEN Chemogenomic Library” (2024):

Key:
[1] = target: T1, Serine/threonine-protein kinase haspin (Homo sapiens) (UniProt Q8TF76); assay: Selectivity interaction (KinomeScan (DiscoverX)) EUB0001049a GSG2; details: at 1 µM
T1 sequence (whole entry): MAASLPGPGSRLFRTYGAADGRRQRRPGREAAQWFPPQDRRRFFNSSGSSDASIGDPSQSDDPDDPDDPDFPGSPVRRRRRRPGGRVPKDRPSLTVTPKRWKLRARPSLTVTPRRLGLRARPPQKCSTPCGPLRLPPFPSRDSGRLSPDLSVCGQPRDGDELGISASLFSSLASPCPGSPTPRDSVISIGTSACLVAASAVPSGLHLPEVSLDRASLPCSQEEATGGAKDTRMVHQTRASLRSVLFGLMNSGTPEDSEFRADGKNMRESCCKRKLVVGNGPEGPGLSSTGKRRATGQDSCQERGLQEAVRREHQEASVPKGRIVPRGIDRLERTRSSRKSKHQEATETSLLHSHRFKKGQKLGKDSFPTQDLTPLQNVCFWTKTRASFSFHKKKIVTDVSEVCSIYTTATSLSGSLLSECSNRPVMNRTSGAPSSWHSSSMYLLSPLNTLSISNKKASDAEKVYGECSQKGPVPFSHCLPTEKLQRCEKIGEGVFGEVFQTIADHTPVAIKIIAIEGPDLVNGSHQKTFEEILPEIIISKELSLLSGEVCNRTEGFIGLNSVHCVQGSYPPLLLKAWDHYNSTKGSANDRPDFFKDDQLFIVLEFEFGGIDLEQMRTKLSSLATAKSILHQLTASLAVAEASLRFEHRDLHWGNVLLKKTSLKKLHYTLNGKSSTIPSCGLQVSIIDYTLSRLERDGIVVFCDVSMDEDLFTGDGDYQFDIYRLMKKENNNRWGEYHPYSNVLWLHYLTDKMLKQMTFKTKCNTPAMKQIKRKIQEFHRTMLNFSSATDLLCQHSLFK

[2] = target: Phosphatidylinositol 4,5-bisphosphate 3-kinase catalytic subunit gamma isoform (Homo sapiens) (UniProt P48736); assay: Selectivity interaction (Panel of kinases, GPCRs, ion channels and transporters (enzymatic assay)) EUB0000266bCl PIK3CG
[3] = target: Calcium/calmodulin-dependent protein kinase kinase 2 (Homo sapiens) (UniProt Q96RR4); assay: Selectivity interaction (ActivX KiNativ screen (kinase selectivity in THP-1 cell lysates)) EUB0000639a CAMKK2; format: subcellular; details: lysate, at 1 µM
[4] = target: Casein kinase I isoform alpha (Homo sapiens, UniProt P48729); assay: Selectivity interaction (ActivX KiNativ screen (kinase selectivity in THP-1 cell lysates)) EUB0000639a CSNK1A1; format: subcellular; details: lysate
Chain of Casein kinase I isoform alpha (P48729 2-337 limits assumed): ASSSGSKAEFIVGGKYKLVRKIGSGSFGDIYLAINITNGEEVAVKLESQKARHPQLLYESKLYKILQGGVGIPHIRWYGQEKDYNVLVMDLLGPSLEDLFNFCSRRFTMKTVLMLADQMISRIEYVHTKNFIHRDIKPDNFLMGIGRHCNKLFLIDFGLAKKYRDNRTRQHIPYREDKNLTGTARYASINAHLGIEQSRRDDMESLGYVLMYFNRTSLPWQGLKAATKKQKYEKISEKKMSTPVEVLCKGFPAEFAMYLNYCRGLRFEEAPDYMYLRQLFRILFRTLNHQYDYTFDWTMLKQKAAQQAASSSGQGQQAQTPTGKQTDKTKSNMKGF

[5] = target: Cyclin-dependent kinase 14 (Homo sapiens) (UniProt O94921); assay: Selectivity interaction (ActivX KiNativ screen (kinase selectivity in THP-1 cell lysates)) EUB0000639a CDK14; format: subcellular; details: lysate
Chain of Cyclin-dependent kinase 14 (Homo sapiens) (O94921 whole entry, the tested form may be a part): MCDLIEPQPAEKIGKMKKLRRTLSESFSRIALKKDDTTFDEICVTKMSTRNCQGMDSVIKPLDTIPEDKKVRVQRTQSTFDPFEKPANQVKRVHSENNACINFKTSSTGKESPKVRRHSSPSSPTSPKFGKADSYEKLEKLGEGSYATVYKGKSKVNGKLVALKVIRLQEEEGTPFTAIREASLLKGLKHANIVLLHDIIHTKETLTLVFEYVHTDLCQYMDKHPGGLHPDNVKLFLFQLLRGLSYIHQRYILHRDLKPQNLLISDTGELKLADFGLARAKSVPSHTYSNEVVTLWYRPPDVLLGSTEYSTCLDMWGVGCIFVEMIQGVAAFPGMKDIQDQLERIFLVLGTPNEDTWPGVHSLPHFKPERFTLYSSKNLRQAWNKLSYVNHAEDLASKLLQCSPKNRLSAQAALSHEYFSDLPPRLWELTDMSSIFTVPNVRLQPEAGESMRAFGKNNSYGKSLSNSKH

[6] = target: LIM domain kinase 2 (Homo sapiens) (UniProt P53671); assay: Selectivity interaction (LanthaScreen Eu Kinase Binding Assay) EUB0001632a LIMK2; details: at 10 µM
Chain of LIM domain kinase 2 (Homo sapiens) (P53671 whole entry, looked up, the tested form may be a part): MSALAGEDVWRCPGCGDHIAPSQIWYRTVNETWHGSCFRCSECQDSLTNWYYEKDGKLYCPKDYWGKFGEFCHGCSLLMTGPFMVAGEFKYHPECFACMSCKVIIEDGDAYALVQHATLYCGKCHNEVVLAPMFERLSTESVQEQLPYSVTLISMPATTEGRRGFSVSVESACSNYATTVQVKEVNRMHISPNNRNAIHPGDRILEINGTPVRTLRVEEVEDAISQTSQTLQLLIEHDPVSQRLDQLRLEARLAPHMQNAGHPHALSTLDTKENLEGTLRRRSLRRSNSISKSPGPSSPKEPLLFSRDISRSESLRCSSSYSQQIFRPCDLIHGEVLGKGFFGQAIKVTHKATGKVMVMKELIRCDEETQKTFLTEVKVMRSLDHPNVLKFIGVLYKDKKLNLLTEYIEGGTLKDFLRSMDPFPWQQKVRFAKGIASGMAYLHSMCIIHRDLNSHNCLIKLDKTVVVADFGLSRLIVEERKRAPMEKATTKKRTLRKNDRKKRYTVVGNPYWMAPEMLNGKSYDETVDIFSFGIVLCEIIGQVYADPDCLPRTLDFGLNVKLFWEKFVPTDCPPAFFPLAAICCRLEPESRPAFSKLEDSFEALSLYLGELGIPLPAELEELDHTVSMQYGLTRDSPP

[7] = target: Ribosomal protein S6 kinase beta-1 (Homo sapiens, UniProt P23443); assay: Selectivity interaction (KinomeScan (DiscoverX)) EUB0000695a RPS6KB1; details: at 100 nM
[8] = tested on: Fibroblast growth factor receptor 3 (Homo sapiens), P22607 [G697C]; assay: Selectivity interaction (KinomeScan (DiscoverX)) EUB0000699a FGFR3; details: at 10 µM
Chain of Fibroblast growth factor receptor 3 (Homo sapiens), P22607 [G697C] (P22607 whole entry G697C): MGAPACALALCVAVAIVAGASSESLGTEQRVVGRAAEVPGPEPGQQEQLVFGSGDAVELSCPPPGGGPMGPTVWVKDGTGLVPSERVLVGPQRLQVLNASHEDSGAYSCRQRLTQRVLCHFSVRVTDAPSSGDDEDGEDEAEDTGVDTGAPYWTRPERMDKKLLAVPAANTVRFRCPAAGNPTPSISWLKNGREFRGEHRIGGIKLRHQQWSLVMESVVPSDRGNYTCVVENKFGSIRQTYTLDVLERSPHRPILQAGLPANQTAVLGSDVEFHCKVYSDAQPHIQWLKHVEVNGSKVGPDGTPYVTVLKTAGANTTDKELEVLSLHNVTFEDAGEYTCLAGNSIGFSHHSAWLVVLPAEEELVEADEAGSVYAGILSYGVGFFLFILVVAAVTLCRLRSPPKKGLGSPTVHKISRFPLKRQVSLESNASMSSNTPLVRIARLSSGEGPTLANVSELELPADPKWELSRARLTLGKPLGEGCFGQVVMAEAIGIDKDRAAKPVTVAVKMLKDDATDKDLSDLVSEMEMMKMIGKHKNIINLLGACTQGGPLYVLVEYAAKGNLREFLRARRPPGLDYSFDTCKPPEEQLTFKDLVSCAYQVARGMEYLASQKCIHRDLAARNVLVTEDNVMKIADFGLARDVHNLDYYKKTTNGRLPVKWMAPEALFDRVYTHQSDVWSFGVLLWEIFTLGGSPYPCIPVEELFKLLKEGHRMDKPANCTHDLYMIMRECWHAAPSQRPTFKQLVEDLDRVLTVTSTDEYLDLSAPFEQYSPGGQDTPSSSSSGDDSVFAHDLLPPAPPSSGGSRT

[9] = target: Mitogen-activated protein kinase kinase kinase kinase 1 (Homo sapiens) (UniProt Q92918); assay: Selectivity interaction (KinomeScan (DiscoverX)) EUB0000595a MAP4K1; details: at 10 µM
[10] = tested on: Epidermal growth factor receptor (Homo sapiens), P00533 [G719S]; details: at 10 µM
[11] = target: Insulin-like growth factor 1 receptor (Homo sapiens, UniProt P08069); assay: Selectivity interaction (ProQinase) EUB0000171b IGF1R
Chain of Insulin-like growth factor 1 receptor (P08069 31-736 limits assumed): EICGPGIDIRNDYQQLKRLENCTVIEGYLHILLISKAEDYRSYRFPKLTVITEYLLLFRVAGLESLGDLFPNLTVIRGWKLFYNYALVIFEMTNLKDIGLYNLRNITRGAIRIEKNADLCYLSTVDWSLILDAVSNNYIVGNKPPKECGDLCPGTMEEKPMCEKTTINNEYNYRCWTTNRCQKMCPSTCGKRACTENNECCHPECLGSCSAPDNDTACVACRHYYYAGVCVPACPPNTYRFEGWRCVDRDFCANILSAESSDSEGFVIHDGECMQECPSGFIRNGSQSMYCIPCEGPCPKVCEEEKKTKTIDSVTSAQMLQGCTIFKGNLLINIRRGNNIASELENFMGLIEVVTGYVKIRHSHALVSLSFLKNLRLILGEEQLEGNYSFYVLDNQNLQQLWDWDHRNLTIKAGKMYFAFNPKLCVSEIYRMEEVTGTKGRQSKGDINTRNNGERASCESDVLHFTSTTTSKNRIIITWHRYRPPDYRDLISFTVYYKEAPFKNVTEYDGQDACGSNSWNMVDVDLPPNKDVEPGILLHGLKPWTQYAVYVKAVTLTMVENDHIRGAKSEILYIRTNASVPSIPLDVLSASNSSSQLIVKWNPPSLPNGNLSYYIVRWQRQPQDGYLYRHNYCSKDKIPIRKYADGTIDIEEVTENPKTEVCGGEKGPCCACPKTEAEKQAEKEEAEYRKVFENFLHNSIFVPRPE
Chain of Insulin-like growth factor 1 receptor (P08069 741-1367 limits assumed): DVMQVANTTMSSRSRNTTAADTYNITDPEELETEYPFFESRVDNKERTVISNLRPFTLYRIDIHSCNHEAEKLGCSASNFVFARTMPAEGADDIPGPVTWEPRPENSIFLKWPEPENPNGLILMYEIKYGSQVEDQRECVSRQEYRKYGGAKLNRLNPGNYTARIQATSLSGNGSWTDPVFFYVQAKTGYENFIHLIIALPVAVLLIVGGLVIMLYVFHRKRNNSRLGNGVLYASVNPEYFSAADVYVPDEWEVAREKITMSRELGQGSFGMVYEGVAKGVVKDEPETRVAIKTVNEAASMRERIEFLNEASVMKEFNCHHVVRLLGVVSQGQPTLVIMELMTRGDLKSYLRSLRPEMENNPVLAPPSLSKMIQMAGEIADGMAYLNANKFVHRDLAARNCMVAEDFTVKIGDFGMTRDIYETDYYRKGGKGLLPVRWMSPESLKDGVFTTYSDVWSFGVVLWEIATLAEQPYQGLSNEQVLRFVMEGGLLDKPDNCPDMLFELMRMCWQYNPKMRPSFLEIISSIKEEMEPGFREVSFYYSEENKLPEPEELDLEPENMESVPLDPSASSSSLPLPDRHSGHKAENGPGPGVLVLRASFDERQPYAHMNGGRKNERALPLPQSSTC

[12] = target: Ribosomal protein S6 kinase alpha-3 (Homo sapiens, UniProt P51812); assay: Selectivity interaction (ProQinase) EUB0000171b RPS6KA3
Chain of Ribosomal protein S6 kinase alpha-3 (P51812 whole entry): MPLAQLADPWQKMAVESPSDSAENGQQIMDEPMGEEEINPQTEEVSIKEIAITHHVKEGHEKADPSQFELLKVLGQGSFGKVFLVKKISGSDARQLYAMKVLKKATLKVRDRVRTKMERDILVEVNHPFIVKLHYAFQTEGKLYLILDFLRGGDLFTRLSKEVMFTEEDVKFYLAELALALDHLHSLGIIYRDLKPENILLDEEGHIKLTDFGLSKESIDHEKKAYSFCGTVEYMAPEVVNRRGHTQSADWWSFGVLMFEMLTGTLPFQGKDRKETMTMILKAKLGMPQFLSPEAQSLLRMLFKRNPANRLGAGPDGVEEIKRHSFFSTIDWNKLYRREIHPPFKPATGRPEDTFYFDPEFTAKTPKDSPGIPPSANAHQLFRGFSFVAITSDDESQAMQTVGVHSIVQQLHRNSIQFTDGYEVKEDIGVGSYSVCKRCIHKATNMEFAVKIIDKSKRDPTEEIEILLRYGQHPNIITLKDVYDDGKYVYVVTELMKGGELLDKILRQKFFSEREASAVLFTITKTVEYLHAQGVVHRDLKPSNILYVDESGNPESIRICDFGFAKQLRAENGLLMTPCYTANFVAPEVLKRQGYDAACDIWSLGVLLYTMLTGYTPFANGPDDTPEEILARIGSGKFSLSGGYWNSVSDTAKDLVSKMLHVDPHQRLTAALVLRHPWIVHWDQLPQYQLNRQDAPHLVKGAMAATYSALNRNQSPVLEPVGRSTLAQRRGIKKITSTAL

[13] = target: Protein kinase C delta type (Homo sapiens) (UniProt Q05655); assay: Selectivity interaction (KinomeScan (DiscoverX)) EUB0000092b PRKCD; details: at 10 µM
Chain of Protein kinase C delta type (Homo sapiens) (Q05655 whole entry, looked up): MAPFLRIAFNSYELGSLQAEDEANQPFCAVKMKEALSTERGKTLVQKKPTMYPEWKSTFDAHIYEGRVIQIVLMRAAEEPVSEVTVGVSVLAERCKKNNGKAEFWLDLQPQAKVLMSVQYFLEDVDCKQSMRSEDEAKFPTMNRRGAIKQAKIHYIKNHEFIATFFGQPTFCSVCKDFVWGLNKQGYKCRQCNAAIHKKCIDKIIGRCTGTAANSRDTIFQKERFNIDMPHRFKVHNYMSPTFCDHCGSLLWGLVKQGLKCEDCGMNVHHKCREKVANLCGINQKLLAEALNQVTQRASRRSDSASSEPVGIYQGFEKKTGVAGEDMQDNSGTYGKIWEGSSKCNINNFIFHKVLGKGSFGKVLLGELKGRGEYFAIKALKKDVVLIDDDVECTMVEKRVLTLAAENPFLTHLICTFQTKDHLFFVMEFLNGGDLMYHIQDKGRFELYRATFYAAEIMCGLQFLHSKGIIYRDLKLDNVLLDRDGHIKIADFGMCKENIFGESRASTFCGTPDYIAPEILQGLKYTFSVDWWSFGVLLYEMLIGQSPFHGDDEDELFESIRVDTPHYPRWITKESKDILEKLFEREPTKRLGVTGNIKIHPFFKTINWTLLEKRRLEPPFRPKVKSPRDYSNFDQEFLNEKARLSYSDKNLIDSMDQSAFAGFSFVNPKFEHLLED

[14] = target: T2, Muscle, skeletal receptor tyrosine-protein kinase (Homo sapiens) (UniProt O15146); assay: Selectivity interaction (KinomeScan (DiscoverX)) EUB0001619a MUSK; details: at 1 µM
T2 sequence (whole entry): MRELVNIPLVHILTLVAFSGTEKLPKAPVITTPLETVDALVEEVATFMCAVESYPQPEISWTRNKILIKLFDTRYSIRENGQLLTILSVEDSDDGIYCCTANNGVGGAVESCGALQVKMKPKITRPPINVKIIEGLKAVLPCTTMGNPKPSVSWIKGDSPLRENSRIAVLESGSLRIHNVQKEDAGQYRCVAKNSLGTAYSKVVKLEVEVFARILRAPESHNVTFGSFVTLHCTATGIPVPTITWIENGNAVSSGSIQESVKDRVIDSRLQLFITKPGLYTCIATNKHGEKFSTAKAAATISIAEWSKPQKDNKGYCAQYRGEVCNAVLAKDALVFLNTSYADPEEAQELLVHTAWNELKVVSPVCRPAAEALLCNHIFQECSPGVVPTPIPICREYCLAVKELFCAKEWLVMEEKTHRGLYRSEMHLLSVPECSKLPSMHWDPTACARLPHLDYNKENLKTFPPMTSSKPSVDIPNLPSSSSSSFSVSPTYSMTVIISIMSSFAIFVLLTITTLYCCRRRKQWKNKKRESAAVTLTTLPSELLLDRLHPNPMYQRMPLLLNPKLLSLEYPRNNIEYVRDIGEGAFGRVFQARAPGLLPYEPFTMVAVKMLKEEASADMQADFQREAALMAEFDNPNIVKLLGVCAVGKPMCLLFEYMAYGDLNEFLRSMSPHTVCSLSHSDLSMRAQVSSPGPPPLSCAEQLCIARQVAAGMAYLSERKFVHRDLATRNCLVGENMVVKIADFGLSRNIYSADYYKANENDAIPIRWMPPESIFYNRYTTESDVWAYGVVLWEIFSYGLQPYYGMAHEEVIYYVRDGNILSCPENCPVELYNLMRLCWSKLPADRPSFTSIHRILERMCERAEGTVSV

[15] = target: Ribosomal protein S6 kinase alpha-2 (Homo sapiens) (UniProt Q15349); assay: Selectivity interaction (KinomeScan (DiscoverX)) EUB0000666a RPS6KA2; details: at 10 µM

`COc1cc(Nc2nc(C)cc(-c3cnn4nc(OC)ccc34)n2)cc(C(F)(F)F)c1` was tested, and the % of control [1] was 100%.
`CCn1c(-c2nc3cc(C(=O)N4CCCC(N)C4)ccc3n2C)cc2ccccc21` (stereo not given) was tested, and the pXC50 [2] was under 4.5 M.
`CC[C@@H]1[C@H](F)C(=O)N[C@@H]1COc1nccc2cc(C(N)=O)c(OC)cc12` [ZIMLOVISERTIB] gave a % of inhibition [3] of 12.1%, a % of inhibition ([4]; at 0.01 µM) of -11.5% and a % of inhibition ([4]; at 0.04 µM) of -1%. For the same compound, the % of inhibition ([4]; at 0.2 µM) was -9.3%, the % of inhibition ([4]; at 1 µM) was -0.4% and the % of inhibition ([4]; at 5 µM) was 16.4%. It also gave a % of inhibition ([5]; at 0.01 µM) of -6.2%, a % of inhibition ([5]; at 0.04 µM) of 2.9% and a % of inhibition ([5]; at 0.2 µM) of -6.5%. For the same compound, the % of inhibition ([5]; at 1 µM) was 12.2% and the % of inhibition ([5]; at 5 µM) was 16.4%.
For `Cn1cc(-n2cnc3c(NCc4nc5cc(Cl)c(Cl)cc5[nH]4)nc(N4CCOCC4)nc32)cn1`, the % of inhibition [6] was -10.5%.
`Cc1cc(F)c(C(=O)Nc2cccc(-c3nncn3C(C)C)n2)cc1-n1cnc(C2CC2)c1` showed a % of control [7] of 100%.
`CCN(CC)CCCCNc1ncc2cc(-c3cc(OC)cc(OC)c3)c(NC(=O)NC(C)(C)C)nc2n1` showed a % of control [8] of 3.7%.
Compound `COCC(=O)NC/C=C/c1ccc2ncnc(Nc3ccc(Oc4ccc(C)nc4)c(C)c3)c2c1` [CP-724714] has a % of control [9] of 91% and a % of control [10] of 0%.
Work on `C=CC(=O)Nc1cccc(C(=O)Nc2ccc(Nc3cc(-c4[nH]c(SC)nc4C)ccn3)cc2)c1` yielded a % of control ([11]; at 1 µM) of 92%, a % of control ([11]; at 5 µM) of 86% and a % of control ([12]; at 1 µM) of 81%. It also gave a % of control ([12]; at 5 µM) of 58%.
With `CCC(=O)N1CCN(c2ccc(-n3c(=O)ccc4cnc5ccc(-c6cnc7ccccc7c6)cc5c43)cc2C(F)(F)F)CC1` the % of control [13] was 82%.
`N#Cc1cccc(-c2c[nH]c3ncnc(N4CCOCC4)c23)c1` was tested, and the % of control [14] was 95%.
Work on `O=C(NOC[C@H](O)CO)c1ccc(F)c(F)c1Nc1ccc(I)cc1F` yielded a % of control [15] of 92%.
